# Laboratory results taken from US20130131321A1, “LIGANDS FOR ANTIBODY AND Fc-FUSION PROTEIN PURIFICATION BY AFFINITY CHROMATOGRAPHY” (GRAFFINITY PHARMACEUTICALS GMBH, priority 2010, published 2013).
# Read-outs that look alike come from different tables or passages of the source.
# Legend:
# Bevacizumab [1] = molecular target: T1, Bevacizumab (Homo sapiens, UniProt P01857); test: Microtiter plate chromatography of resins, Bevacizumab whole IgG (bound, yield, selectivity); type: binding, humanized
# T1 construct: fused on or other part: humanised anti-VEGF-A VH domain N-terminal of the gamma-1 constant region (engineered, no UniProt entry)
# Procedure: (§1) Resins were assessed in packed mode by microtiter plate chromatography. For each column, approximately 30 μl of resin were transferred to a 384-well filter plate and sealed with appropriate top frits.
# (§2) Columns were equilibrated with 6.7 column volumes (cv) of phosphate buffered saline (0.15 M NaCl, 20 mM sodium phosphate, pH 7.3; PBS) prior to injection. Either 3.3 cv of whole IgGs dissolved at 0.75 mg ml^−1, Fab or Fc fragments dissolved at 0.25 mg ml^−1 (all three in PBS) or host cell proteins (HCP) were injected onto columns. Antibody fragments of Bevacizumab (Fab and Fc) were prepared by cleavage of whole IgG with papain protease (3) according to the protocol of the manufacturer. […] Volumes transferred were spun through columns at 50 g for 1-2 min. During injection of samples, acceleration was reduced to 10 g and centrifugation time increased to 5-10 min. Effluent fractions were collected in 384-well plates and concentrations of protein analyzed by Bradford assay. Protein masses mi, mft and me (see below) were calculated as the product of fraction volume and measured protein concentration.
# (§3) The fraction of ‘bound’ protein was calculated as the difference between the total mass of protein injected mi and the mass of protein detected in the flowthrough mft, divided by the total mass of protein injected.
# (§4) The ‘yield’ of protein was calculated as the mass of protein eluted me, divided by the mass of protein injected mi.
# (§5) The ‘selectivity’ of resins was calculated as the fraction of bound antibody BAb, divided by the fraction of bound host cell proteins BHCP.
# (§6) the fraction of ‘bound’ protein and the ‘yield’ of protein were calculated for each resin based on data for whole IgG-antibodies. In the case of Bevacizumab fragments and host cell proteins, only the fraction of ‘bound’ protein is given. Selectivity of resins was calculated from data for Bevacizumab Whole IgG and host cell proteins. Due to limited experimental precision, selectivity was truncated beyond values of 10.
# Bevacizumab [2] = test: as above; type: binding, humanized
# Procedure: as §1, §2, §3, §4, §5, §6
# Tocilizumab = test: Microtiter plate chromatography of resins, Tocilizumab (bound, yield); type: binding, humanized
# Procedure: as §1, §2, §3, §4, §6
# Palivizumab = test: Microtiter plate chromatography of resins, Palivizumab (bound, yield); type: binding, humanized
# Procedure: as §1, §2, §3, §4, §6
# [3] = tested on: human poly-IgG (h-poly-IgG); test: Microtiter plate chromatography of resins, human poly-IgG (bound, yield); type: binding
# Procedure: as §1, §2, §3, §4, §6
# host cell proteins (HCP) = test: Microtiter plate chromatography of resins, host cell proteins (bound); type: binding, CHO
# Procedure: Flowthrough from protein A chromatography (referred to as host cell proteins) was derived from the supernatant of antibody-producing CHO cell culture in serum-free medium.
# as §1, §2, §3, §6
# [4] = fraction of whole IgG Bevacizumab bound to resin
# [5] = mass of whole IgG Bevacizumab eluted / mass injected
# [6] = fraction of bound Bevacizumab whole IgG / fraction of bound HCP, truncated beyond values of 10
# [7] = fraction of injected whole IgG bound to resin
# [8] = mass eluted / mass injected, whole IgG
# [9] = fraction of injected protein bound to resin
# [10] = fraction of injected host cell proteins bound to resin
Compound,Bevacizumab IgG Bound (%) (Bevacizumab [1]; [4]),Bevacizumab IgG Yield (%) (Bevacizumab [1]; [5]),Tocilizumab Bound (%) (Tocilizumab),Tocilizumab Yield (%) (Tocilizumab),Palivizumab Bound (%) (Palivizumab),Palivizumab Yield (%) (Palivizumab),h-poly-IgG Bound (%) [3],h-poly-IgG Yield (%) [3],HCP Bound (%) (host cell proteins (HCP); host cell proteins),Selectivity (Bevacizumab [2]),also measured
"COc1ccc(NC(=O)c2nc3cccnc3[nH]2)cc1C(=O)NCCCN [Ligand L41, 5-(3H-Imidazo[4,5-b]pyridin-2-ylcarboxamido)-2-methoxybenzoic acid (3-amino-1-propyl)amide]",100%,100%,91%,91%,74%,71%,85%,85%,9%,,Selectivity (Bevacizumab [2]; [6]): 10.0
"COc1ccc(NC(=O)c2cn(C)c3ccccc23)cc1C(=O)NCCCN [Ligand L25, 2-Methoxy-5-(1-methylindol-3-yl)carboxamidobenzoic acid N-(3-aminopropyl)amide]",100%,95%,100%,93%,82%,78%,93%,81%,46%,2.2,
"COc1ccc(NC(=O)c2onc3ccccc23)cc1C(=O)NCCCN [Ligand L31, 5-(Benzo[c]isoxazol-3-yl)carboxamido-2-methoxybenzoic acid N-(3-aminopropyl)amide]",100%,96%,100%,98%,99%,94%,95%,74%,23%,4.4,"selectivity index (Bevacizumab [2]; fraction of bound Bevacizumab whole IgG divided by fraction of bound HCP, truncated beyond 10): 4.4"
"COc1ccc(NC(=O)c2nn(CCO)c3ccccc23)cc1C(=O)NCCCN [Ligand L59, 5-[1-(2-Hydroxyethyl)indazol-3-ylcarboxamido]-2-methoxybenzoic acid (3-amino-1-propyl)amide]",100%,97%,89%,89%,64%,64%,71%,71%,32%,3.1,
"COc1ccc(NC(=O)c2cn3ncccc3n2)cc1C(=O)NCCCN [Ligand L48, 5-(Imidazo[1,2-b]pyridazin-2-ylcarboxamido)-2-methoxybenzoic acid (3-amino-1-propyl)amide]",100%,97%,87%,87%,58%,54%,84%,84%,8%,,Selectivity (Bevacizumab [2]; [6]): 10.0
"COc1ccc(NC(=O)c2cn3ccsc3n2)cc1C(=O)NCCCCCC(=O)NCCOCCOCCN [Ligand L76, 6-[5-(Imidazo[2,1-b]thiazol-6-ylcarboxamido)-2-methoxyphenylcarboxamido]hexanoic acid (8-amino-3,6-dioxa-1-octyl)amide]",,,,,,,,,,,"Bevacizumab IgG Bound (%) (Bevacizumab [1]; [7]): 100%; Bevacizumab IgG Yield (%) (Bevacizumab [1]; [8]): 98%; Selectivity (Bevacizumab [2]; bound Bevacizumab whole IgG / bound HCP, truncated beyond values of 10): 10.0; Tocilizumab Bound (%) (Tocilizumab; [9]): 93%; Tocilizumab Yield (%) (Tocilizumab; mass eluted / mass injected): 89%; Palivizumab Bound (%) (Palivizumab; [9]): 59%; Palivizumab Yield (%) (Palivizumab; mass eluted / mass injected): 59%; h-poly-IgG Bound (%) [3, 9]: 73%; h-poly-IgG Yield (%) ([3]; mass eluted / mass injected): 73%; HCP Bound (%) (host cell proteins (HCP); [10]): 9%"
"COc1ccc(NC(=O)c2cc(-c3ccco3)[nH]n2)cc1C(=O)NCCCN [Ligand L20, 5-[5-(2-Furyl)pyrazol-3-yl]carboxamido-2-methoxybenzoic acid N-(3-aminopropyl)amide]",100%,96%,100%,96%,97%,84%,93%,82%,47%,2.1,
"COc1ccc(NC(=O)c2nccc3ccccc23)cc1C(=O)NCCCN [Ligand L35, 5-(1-Isoquinolinyl)carboxamido-2-methoxybenzoic acid N-(3-aminopropyl)amide]",100%,96%,100%,92%,100%,95%,95%,76%,51%,2.0,
"COc1ccc(NC(=O)c2n[nH]c3ccccc23)cc1C(=O)NCCCN [Ligand L36, 5-(Indazol-3-yl)carboxamido-2-methoxybenzoic acid N-(3-aminopropyl)amide]",100%,100%,100%,95%,100%,100%,95%,77%,54%,1.9,
"COc1ccc(NC(=O)c2cc(-c3ccccc3)no2)cc1C(=O)NCCCN [Ligand L51, 2-Methoxy-5-(3-phenylisoxazol-5-ylcarboxamido)benzoic acid (3-amino-1-propyl)amide]",100%,95%,95%,93%,85%,85%,89%,89%,30%,3.3,
"COc1ccc(NC(=O)c2cc(-c3cccc(Cl)c3)n(C)n2)cc1C(=O)NCCCN [Ligand L7, 5-[5-(3-Chlorophenyl)-1-methylpyrazol-3-yl]carboxamido-2-methoxybenzoic acid N-(3-aminopropyl)amide]",100%,110%,92%,109%,100%,99%,100%,91%,70%,1.4,
"COc1ccc(C(=O)Nc2nn(C)c3ccccc23)cc1C(=O)NCCCN [Ligand L39, 5-[N-(1-Methylindazol-3-yl)carbamoyl]-2-methoxybenzoic acid (3-amino-1-propyl)amide]",100%,100%,100%,100%,100%,100%,100%,100%,35%,2.9,
"NCCCNC(=O)c1cccc(C(=O)Nc2cc(-c3ccco3)[nH]n2)c1 [Ligand L21, 3-{N-[5-(2-Furyl)pyrazol-3-yl]carbamoyl}benzoic acid N′-(3-aminopropyl)amide]",99%,95%,52%,53%,26%,26%,54%,61%,50%,2.0,
"COc1ccc(NC(=O)c2cn3ccsc3n2)cc1C(=O)NCCCNC(=O)CCCCCN [Ligand L75, 5-(Imidazo[2,1-b]thiazol-6-ylcarboxamido)-2-methoxybenzoic acid [3-(6-aminohexanoylamido)-1-propyl]amide]",,,,,,,,,,5.7,"Bevacizumab IgG Bound (%) (Bevacizumab [1]; [7]): 100%; Bevacizumab IgG Yield (%) (Bevacizumab [1]; [8]): 97%; Tocilizumab Bound (%) (Tocilizumab; [9]): 100%; Tocilizumab Yield (%) (Tocilizumab; mass eluted / mass injected): 98%; Palivizumab Bound (%) (Palivizumab; [9]): 91%; Palivizumab Yield (%) (Palivizumab; mass eluted / mass injected): 91%; h-poly-IgG Bound (%) [3, 9]: 90%; h-poly-IgG Yield (%) ([3]; mass eluted / mass injected): 90%; HCP Bound (%) (host cell proteins (HCP); [10]): 18%"
